# Assay results as given in patent US20240366813A1, “PEPTIDE-UREA DERIVATIVE, PHARMACEUTICAL COMPOSITION CONTAINING SAME AND APPLICATION THEREOF” (Bivision Pharmaceuticals, Inc., priority 0001, published 2024).
# “And” between values parts separate entries of the source, which are not always exact repeats. Identical values can stand only once.
# Columns and labels:
# [1] = In vivo metabolism test of 177Lu-labeled complex in SD rats (plasma radioactive counts); settings: for plasma radioactive counts: individual rat, 100 μL plasma; for plasma radioactive counts, MEAN: mean of rats
# Protocol: Eighteen SD rats (Hangzhou Ziyuan Experimental Animal Technology Co., Ltd.), male, weighing 180-200 g, were randomly divided into 6 groups, 3 rats in each group. […] of the labeled precursor compound was injected into the tail vein of each mouse. 250 μL of orbital blood was collected into anticoagulant tubes at 5 min, 0.5 h, 1 h, 2 h, 4 h, 8 h and 24 h after administration. Blood was centrifuged at 3000 rpm for 10 min, and 100 μL of plasma was taken into scintillation vials. 2 mL of scintillation fluid was added to each scintillation vial and shaken well. A liquid scintillation counter was used to detect radioactive counts in each vial.
# [2] = system: LNCaP PSMA-positive tumors; assay: SPECT imaging in mice carrying LNCaP PSMA-positive tumors; type: in vivo; settings: 100 μCi tail vein
# Protocol: 100 μCi of ^177Lu-labeled ^177Lu-E3 and ^177Lu-PSMA-617 were injected into mice carrying LNCaP PSMA-positive tumors (Jiangsu Huajing Molecular Imaging and Drug Research Institute Co., Ltd.) through the tail vein respectively. Mice were anesthetized with 2% isoflurane/98% oxygen for SPECT image contrast study.
# [3] = system: 22rv1 PSMA-expressing tumors; assay: SPECT imaging in 22rv1 tumor-bearing balb/c nude mice (effect example 10); type: in vivo; settings: about 7.4 MBq/mouse tail vein
# Protocol: About 4-5 weeks old (balb/c nude, Beijing Vital River) mice were subcutaneously inoculated with 5×10^6 cells of 22rv1 (in 50% Matrigel, Corning) on the right scapula of animals. When the tumor grew to a size of about 150-350 mm^3, after anesthesia with isoflurane, ^177Lu-PSMA-617, ^177Lu-E3, ^177Lu-E4, ^177Lu-E8, ^177Lu-E16, ^177Lu-E18, ^177Lu-E24 radiolabeled compounds were injected into the tail vein of mice (about 7.4 MBq/mouse, specific activity: 22423.82 KBq/μg). Subsequently, SPECT imaging was performed with a small animal SPECT-CT imaging system (U-SPECT+/CT, MI Labs) at 1 h, 5 h, 24 h, 48 h and 72 h, respectively. ^177Lu-PSMA-617 is shown in FIG. 9, ^177Lu-E3 is shown in FIG. 10, ^177Lu-E4 is shown in FIG. 11, ^177Lu-E8 is shown in FIG. 12, ^177Lu-E16 is shown in FIG. 13, ^177Lu-[…] is shown in FIG. 14, and ^177Lu-E24 is shown in FIG. 15. […] The main way of drug elimination is through the kidney.
# [4] = system: PSMA-positive cells LNCap; assay: Uptake of labeled compounds by PSMA-positive cells LNCap; type: cell-based; settings: 37° C., 0.5 h
# Protocol: LNCap cells (Shangcheng Beina Chuanglian Biotechnology Co., Ltd., Industrial Park, Chengguan Town, Shangcheng County, Xinyang City, Henan Province) were revived and passaged for expansion. After the cells were expanded to a sufficient amount, cells were seeded in a 24-well plate at a density of 1×10^4 cells/well. Uptake tests were performed when cells grew to 80%-90% confluence.
# The above labeled compounds ^177Lu-E1, ^177Lu-E2, ^177Lu-E3, ^177Lu-E5, ^177Lu-E9, ^177Lu-E14 and ^177Lu-PSMA-617 were diluted with serum-free medium into 10000, 1000, 100, 10, 1, 0.1 and 0 nM. 1 mL of the diluted solution was added to a 24-well plate, and incubated at 37° C. for 0.5 h. The supernatant was discarded and the cells were washed 3 times with PBS. 250 μL of 1M NaOH solution was added to each well. The cells were pipetted until they were completely dissolved, and transferred to a scintillation vial. 250 μL of NaOH solution was added to each well again to wash the bottom of the well and transferred to a scintillation vial. 2 mL of scintillation fluid was added to each scintillation vial and shaken well. A liquid scintillation counter was used to detect radioactive counts in each vial.
# [5] = system: 22rv1 xenograft tumor; assay: Pharmacodynamic study in 22rv1 mouse xenograft tumor model (effect example 11); type: in vivo, mice; settings: over the two dose groups
# [6] = In vivo distribution in healthy SD rats; settings: intravenous, FIG. 7
# Protocol: In vivo distribution in healthy rats: Radiolabeled E series compounds were injected into the tail vein of SD rats aged 6-9 weeks (Hangzhou Ziyuan Testal Animal Technology Co., Ltd.) (about 7.4 MBq/mouse, specific activity: 84200.14 kBq/μg). At different time points (0.25, 0.5, 1, 2, 4, 6, 24, 48, 72 h) after administration of labeled compounds to SD rats, the animals were euthanized by carbon dioxide inhalation, and the blood and […] viscera (blood, liver, spleen, lungs, heart, muscle, pancreas, testes) of the animals were collected after euthanasia.
# Blood was collected through the abdominal aorta, and immediately after collection, 100 μL was quantified into a designated centrifuge tube (weighed). After the viscera were collected, they were washed twice with deionized water, wiped dry, put into a pre-weighed test tube, and weighed again. The weight of samples was calculated. The sample was measured on the day of collection. All blood samples and tissue samples were measured for radioactive counts using a gamma counter.
# [7] = 5 min after tail vein injection
# [8] = 0.5 h after tail vein injection
smiles,measurement,setting,value
O=C([O-])CN1CCN(CC(=O)[O-])CCN(CC(=O)N2CCc3cc(C(=O)NC(Cc4ccc5ccccc5c4)C(=O)NCCCCC(NC(=O)NC(CCC(=O)O)C(=O)O)C(=O)O)ccc3C2)CCN(CC(=O)[O-])CC1.[177Lu+3] (stereo not drawn) [^177Lu-E3],plasma radioactive counts,[1]; [7],26791 cpm and 31372 cpm and 27797 cpm
same,plasma radioactive counts,[1]; [8],10681 cpm and 8675 cpm and 8026 cpm
same,plasma radioactive counts,[1]; 1 h after tail vein injection,3448 cpm and 3676 cpm and 2916 cpm
same,plasma radioactive counts,[1]; 2 h after tail vein injection,539 cpm and 559 cpm and 458 cpm
same,plasma radioactive counts,[1]; 4 h after tail vein injection,178 cpm and 135 cpm and 181 cpm
same,plasma radioactive counts,[1]; 8 h after tail vein injection,154 cpm and 191 cpm and 184 cpm
same,plasma radioactive counts,[1]; 24 h after tail vein injection,191 cpm and 175 cpm and 179 cpm
same,"plasma radioactive counts, MEAN",[1]; [7],28653 cpm
same,"plasma radioactive counts, MEAN",[1]; [8],9127 cpm
same,"plasma radioactive counts, MEAN",[1]; 1 h after tail vein injection,3347 cpm
same,"plasma radioactive counts, MEAN",[1]; 2 h after tail vein injection,519 cpm
same,"plasma radioactive counts, MEAN",[1]; 4 h after tail vein injection,165 cpm
same,"plasma radioactive counts, MEAN",[1]; 8 h after tail vein injection,176 cpm
same,"plasma radioactive counts, MEAN",[1]; 24 h after tail vein injection,182 cpm
same,accumulation in PSMA-positive tumors compared with reference animals injected with ^177Lu-PSMA-617,[2],significantly higher
same,route of excretion,[2],mainly excreted through the kidney
same,"Heart, Averaged",[2]; 1 h,6.44 % ID/cc
same,"Kidney, Averaged",[2]; 1 h,165.36 % ID/cc
same,"Liver, Averaged",[2]; 1 h,3.08 % ID/cc
same,"Lung, Averaged",[2]; 1 h,5.52 % ID/cc
same,"Tumor, Averaged",[2]; 1 h,23.56 % ID/cc
same,"Heart, Averaged",[2]; 4 h,2.41 % ID/cc
same,"Kidney, Averaged",[2]; 4 h,129.55 % ID/cc
same,"Liver, Averaged",[2]; 4 h,2.03 % ID/cc
same,"Lung, Averaged",[2]; 4 h,3.26 % ID/cc
same,"Tumor, Averaged",[2]; 4 h,28.79 % ID/cc
same,"Heart, Averaged",[2]; 8 h,1.39 % ID/cc
same,"Kidney, Averaged",[2]; 8 h,87.74 % ID/cc
same,"Liver, Averaged",[2]; 8 h,2.54 % ID/cc
same,"Lung, Averaged",[2]; 8 h,1.82 % ID/cc
same,"Tumor, Averaged",[2]; 8 h,31.79 % ID/cc
same,"Heart, Averaged",[2]; 1 d,3.23 % ID/cc
same,"Kidney, Averaged",[2]; 1 d,8.03 % ID/cc
same,"Liver, Averaged",[2]; 1 d,1.94 % ID/cc
same,"Lung, Averaged",[2]; 1 d,2.71 % ID/cc
same,"Tumor, Averaged",[2]; 1 d,34.01 % ID/cc
same,"Heart, Averaged",[2]; 3 d,2.03 % ID/cc
same,"Kidney, Averaged",[2]; 3 d,3.74 % ID/cc
same,"Liver, Averaged",[2]; 3 d,1.80 % ID/cc
same,"Lung, Averaged",[2]; 3 d,2.68 % ID/cc
same,"Tumor, Averaged",[2]; 3 d,32.84 % ID/cc
same,specific absorption in PSMA-expressing tumors after 72 hours,[3],high specific absorption
same,uptake of radioactivity in PSMA-expressing tumors compared with ^177Lu-PSMA-617,[3],higher uptake of radioactivity
same,uptake by LNCap cells,[4]; 0.1 nM,48 cpm
same,uptake by LNCap cells,[4]; 1 nM,95 cpm
same,uptake by LNCap cells,[4]; 10 nM,346 cpm
same,uptake by LNCap cells,[4]; 100 nM,555 cpm
same,uptake by LNCap cells,[4]; 1000 nM,903 cpm
same,uptake by LNCap cells,[4]; 10000 nM,3150 cpm
same,tumor growth inhibition rate,[5],71-80%
same,uptake in each organ,[6],low
